# Laboratory results from patent US20200308170A1, “KRAS G12C INHIBITORS” (Mirati Therapeutics, Inc., priority 2017, published 2020).
# Target: KRas G12C (Homo sapiens, UniProt P01116, G12C)
# Assay: Inhibition of KRas G12C in NCI-H358 cells measured by phosphorylated ERK (Phospho-ERK)
# Assay type: cell-based
# Details: 3 hours, 4 parameter fit, read-out: IC50 (pERK(Thr202/Tyr204) signal normalized with GAPDH)
# Description: Cells were plated in poly-D-Lysine coated 96-well plates at a concentration of 50,000 cells/well and allowed to attach for 8-12 hours. Diluted compounds were then added at a final concentration of 0.5% DMSO. After 3 hours, the medium was removed, 150 μL of 4% formaldehyde was added and the plates were incubated for 20 minutes. The plates were washed with PBS, and permeabilized using 150 μL of ice cold 100% methanol for 10 minutes. Non-specific antibody binding to the plates was blocked using 100 μL Licor Blocking Buffer (Li-Cor Biotechnology, Lincoln Nebr.) for 1 hour at room temperature. Positive control samples and samples lacking cells were parallel processed with test samples as standards.
# The amount Phospho-ERK was determined using an antibody specific for the phosphorylated form of ERK and compared to the amount of GAPDH. […] The plates were incubated for 2 hours at room temperature. The plates were washed with PBS+0.05% Tween 20.
# Secondary antibodies used to visualize primary antibodies were added as follows: Anti-rabbit-680 diluted 1:1000 and Anti-mouse-800 diluted 1:1000 in Licor Block+0.05% Tween 20 and incubated for 1 hour at room temperature. The plates were washed with PBS+0.05% Tween 20. A 100 μL aliquot of PBS was added to each well and the plates were read on a LICOR AERIUS plate reader.
# The pERK(Thr202/Tyr204) signal was normalized with the GAPDH signal and percent of DMSO control values were calculated. IC50 values were generated using a 4 parameter fit of the dose response curve.
# KRas G12C, sequence (P01116 1-188 isoform P01116-2 G12C): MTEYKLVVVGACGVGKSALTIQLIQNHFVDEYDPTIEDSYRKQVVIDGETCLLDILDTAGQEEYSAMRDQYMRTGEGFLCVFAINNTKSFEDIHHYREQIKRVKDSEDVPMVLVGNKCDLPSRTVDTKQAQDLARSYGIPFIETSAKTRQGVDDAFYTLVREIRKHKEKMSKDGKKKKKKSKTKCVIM
row,SMILES,IC50
1,C=C(F)C(=O)N1CCN(c2nc(OCC34CCCN3CC3(CC3)C4)nc3c2CCN(c2cccc4ccc(F)c(Cl)c24)C3)C[C@@H]1CC#N (stereo partly drawn) [Example 184],0.1 to 1000 nM
2,"CN1CC(F)(F)C[C@H]1COc1nc2c(c(N3CCN(C(=O)/C=C/CN4CC(F)C4)[C@@H](CC#N)C3)n1)CCN(c1cccc3cccc(Cl)c13)C2 [Example 57, 2-((S)-4-(7-(8-chloronaphthalen-1-yl)-2-(((S)-4,4-difluoro-1-methylpyrrolidin-2-yl)methoxy)-5,6,7,8-tetrahydropyrido[3,4-d]pyrimidin-4-yl)-1-((E)-4-(3-fluoroazetidin-1-yl)but-2-enoyl)piperazin-2-yl)acetonitrile]",1000 to 10000 nM
3,C=C(F)C(=O)N1CCN(c2nc(OCC(C)N3CCOCC3)nc3c2CCN(c2cccc4ccc(F)c(Cl)c24)C3)C[C@@H]1CC#N (stereo partly drawn) [Example 177],0.1 to 1000 nM
4,C=C(F)C(=O)N1CCN(c2nc(OCCCN3C[C@@H]4C[C@H]3CO4)nc3c2CCN(c2cccc4ccc(F)c(Cl)c24)C3)C[C@@H]1CC#N [Example 198],0.1 to 1000 nM
5,C=C(F)C(=O)N1CCN(c2nc(OCC(C)N3CCCCC3)nc3c2CCN(c2cccc4ccc(F)c(Cl)c24)C3)C[C@@H]1CC#N (stereo partly drawn) [Example 158],0.1 to 1000 nM
6,C=C(F)C(=O)N1CCN(c2nc(OC[C@@H]3C[C@@H](F)CN3C(C)C)nc3c2CCN(c2cccc4ccc(F)c(Cl)c24)C3)C[C@@H]1CC#N [Example 183],0.1 to 1000 nM
7,C=C(F)C(=O)N1CCN(c2nc(OCC3CC4(CC4)CN3C)nc3c2CCN(c2cccc4ccc(F)c(Cl)c24)C3)C[C@@H]1CC#N (stereo partly drawn) [Example 160],0.1 to 1000 nM
8,C=C(F)C(=O)N1CCN(c2nc(OCCNCC(F)(F)F)nc3c2CCN(c2cccc4ccc(F)c(Cl)c24)C3)C[C@@H]1CC#N [Example 200],0.1 to 1000 nM
9,C=C(F)C(=O)N1CCN(c2nc(OC[C@@H]3CCCN3CC)nc3c2CCN(c2cccc4ccc(F)c(Cl)c24)C3)C[C@@H]1CC#N [Example 185],0.1 to 1000 nM
10,"C=C(F)C(=O)N1CCN(c2nc(OCC34CCCN3CCC4)nc3c2CCN(c2cccc4cccc(Cl)c24)C3)C[C@@H]1CC#N [Example 105, (S)-2-(4-(7-(8-chloronaphthalen-1-yl)-2-((tetrahydro-1H-pyrrolizin-7a(5H)-yl)methoxy)-5,6,7,8-tetrahydropyrido[3,4-d]pyrimidin-4-yl)-1-(2-fluoroacryloyl)piperazin-2-yl)acetonitrile]",0.1 to 1000 nM
11,C=C(F)C(=O)N1CCN(c2nc(OCC3COCCO3)nc3c2CCN(c2cccc4ccc(F)c(Cl)c24)C3)C[C@@H]1CC#N (stereo partly drawn) [Example 201],0.1 to 1000 nM
12,C=C(F)C(=O)N1CCN(c2nc(OC[C@@H]3C[C@@H](F)CN3C)nc3c2CCN(c2cccc4ccc(F)c(Cl)c24)C3)C[C@@H]1CC#N [Example 172],0.1 to 1000 nM
13,C=C(F)C(=O)N1CCN(c2nc(OCCN3CCCCCC3)nc3c2CCN(c2cccc4ccc(F)c(Cl)c24)C3)C[C@@H]1CC#N [Example 165],0.1 to 1000 nM
14,C=C(F)C(=O)N1CCN(c2nc(OC3CN(CCC#N)C3)nc3c2CCN(c2cccc4ccc(F)c(Cl)c24)C3)C[C@@H]1CC#N [Example 157],1000 to 10000 nM
15,C=C(F)C(=O)N1CCN(c2nc(OCC3CCC(C)(C)N3C)nc3c2CCN(c2cccc4ccc(F)c(Cl)c24)C3)C[C@@H]1CC#N (stereo partly drawn) [Example 199],0.1 to 1000 nM
16,C=C(F)C(=O)N1CCN(c2nc(OCC34CCCN3CCC4)nc3c2CCN(c2cccc(F)c2C(F)(F)F)C3)C[C@@H]1CC#N [Example 140],0.1 to 1000 nM
17,C=C(F)C(=O)N1CCN(c2nc(OCC3(CC)CCCN3C)nc3c2CCN(c2cccc4ccc(F)c(Cl)c24)C3)C[C@@H]1CC#N (stereo partly drawn) [Example 175],0.1 to 1000 nM
18,"C=C(F)C(=O)N1CCN(c2nc(OC[C@@H]3C[C@@H](OC)CN3)nc3c2CCN(c2cccc4ccc(F)c(Cl)c24)C3)C[C@@H]1CC#N [Example 210, 2-((S)-4-(7-(8-chloro-7-fluoronaphthalen-1-yl)-2-(((2S,4R)-4-methoxypyrrolidin-2-yl)methoxy)-5,6,7,8-tetrahydropyrido[3,4-d]pyrimidin-4-yl)-1-(2-fluoroacryloyl)piperazin-2-yl)acetonitrile]",0.1 to 1000 nM
